Reference: ChEMBL document CHEMBL1155033, “Catalytic analysis of the validamycin glycosyltransferase (ValG) and enzymatic production of 4''-epi-validamycin A” (J Nat Prod, 2008)
The source made the active and inactive calls. The calls are words filed in the database; no cut-off is given here.

System: Rhizoctonia solani
Assay: Growth inhibition of Rhizoctonia solani assessed as inhibition of fungal mycelia expansion at 1 mg after 2 days by agar plug assay
Assay type: functional, organism-based

In the case of `OCC1=C[C@@H](N[C@H]2C[C@H](CO)[C@@H](O[C@H]3O[C@@H](CO)[C@H](O)[C@@H](O)[C@@H]3O)[C@H](O)[C@H]2O)[C@H](O)[C@@H](O)[C@@H]1O`, the Activity is reported as “Active”.
